Assay results from patent US6551632B2, “Methods and compositions for treating inflammatory bowel disease” (priority 1997, dated 2003).

System: Patients with Inflammatory Bowel Disease
Assay: Treatment of patients with inflammatory bowel disease using a combination of anti-atypical mycobacterial agents (Example 1)
Method: Fifteen patients, aged 13 to 58, were treated with various protocols of antimycobacterial agents. Twelve patients had Crohn's disease and three ulcerative colitis. Presence of Mycobacterium paratuberculosis was identified in nine of these patients. A combination of clarithromycin (250 mg to 1.5 grams per day), rifabutin (150 mg to 750 mg per day) and clofazimine (3 mg/kg to 10 mg/kg) was used.
After four months of treatment, five patients were examined colonoscopically.
In these three patients, a combination of clarithromycin and rifabutin (same dosages as above) together with added clofazimine, 2 mg per kg, made up a preferred therapy. […] No prednisone, azathioprine or 5ASA compounds were used. […] This dose was increased at one stage to 50 mg per kg in an attempt to reverse the inflammatory process and then reduced to 10 mg per kg. […] In yet a further patient four drugs were used simultaneously because of resistance to clarithromycin. Azithromycin, 500 mg each morning (range 250-1,500 mg) was used in combination with rifabutin, clofazimine, and ethambutol.

| Compound | sensitivity (adverse reaction) (one patient on the combination therapy) | clinical response after rifabutin was changed to ethambutol (one patient, ethambutol 400 mg twice daily, raised to 50 mg per kg, then 10 mg per kg, with clarithromycin and clofazimine) |
| --- | --- | --- |
| CO[C@H]1/C=C/O[C@@]2(C)Oc3c(C)c(O)c4c(c3C2=O)C2=NC3(CCN(CC(C)C)CC3)NC2=C(NC(=O)/C(C)=C\C=C\[C@H](C)[C@H](O)[C@@H](C)[C@@H](O)[C@@H](C)[C@H](OC(C)=O)[C@@H]1C)C4=O [rifabutin] | marked headaches and fever | – |
| CC[C@@H](CO)NCCN[C@@H](CC)CO [ethambutol] | – | reversal of the inflammatory process with loss of diarrhoea, loss of bleeding, and ultimately loss of urgency |
